Test results from paper PMC5031999, “Structure and catalytic mechanism of monodehydroascorbate reductase, MDHAR, from Oryza sativa L. japonica” (Scientific Reports, 2016).

How the values were obtained:
Assay type in all cases: binding
OsMDHAR [1] = molecular target: T1, OsMDHAR (Oryza sativa, UniProt Q652L6); experiment: X-ray crystal structure, […] Å; conditions: co-purified FAD, one per monomer; NAD-free crystal
T1 construct: gene MDAR3; amplified from rice cDNA; monomer by size exclusion

OsMDHAR [2] = molecular target: T1, OsMDHAR; experiment: isothermal titration calorimetry; conditions: text names both NADH and NAD for the titrated ligand
OsMDHAR [3] = molecular target: T2, OsMDHAR (Oryza sativa, UniProt Q652L6, E196A); experiment: isothermal titration calorimetry; conditions: text names both NADH and NAD for the titrated ligand
T2 construct: gene MDAR3; amplified from rice cDNA; monomer by size exclusion
T2 sequence (Q652L6 whole entry E196A): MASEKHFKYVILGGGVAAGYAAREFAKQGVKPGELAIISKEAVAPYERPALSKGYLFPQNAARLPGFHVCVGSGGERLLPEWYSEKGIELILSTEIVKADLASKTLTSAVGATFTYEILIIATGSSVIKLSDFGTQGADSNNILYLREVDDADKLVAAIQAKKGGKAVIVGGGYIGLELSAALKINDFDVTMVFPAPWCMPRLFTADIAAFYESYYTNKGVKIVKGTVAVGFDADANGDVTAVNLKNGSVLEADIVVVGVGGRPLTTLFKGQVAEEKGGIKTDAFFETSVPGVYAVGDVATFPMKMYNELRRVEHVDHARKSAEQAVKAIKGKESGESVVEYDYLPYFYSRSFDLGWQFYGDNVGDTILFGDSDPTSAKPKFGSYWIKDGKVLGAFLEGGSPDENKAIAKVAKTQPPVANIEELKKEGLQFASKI

OsMDHAR [4] = molecular target: T3, OsMDHAR (Oryza sativa, UniProt Q652L6, Y349F); experiment: X-ray crystal structure, […] Å; conditions: crystal soaked with 10 mM NADH, then ISD; quaternary complex with FAD and ISD
T3 construct: gene MDAR3; amplified from rice cDNA; monomer by size exclusion
T3 sequence (Q652L6 whole entry Y349F): as the sequence (Q652L6 whole entry E196A) above, with A196E, Y349F counted along it

OsMDHAR [5] = molecular target: T2, OsMDHAR; experiment: X-ray crystal structure, […] Å; conditions: crystal soaked with 50 mM NADPH until colourless; FAD bound

T1 sequence (Q652L6 whole entry): as the sequence (Q652L6 whole entry E196A) above, with A196E counted along it

Question: For `Cc1cc2nc3c(=O)[nH]c(=O)nc-3n(C[C@H](O)[C@H](O)[C@H](O)COP(=O)(O)OP(=O)(O)OC[C@H]3O[C@@H](n4cnc5c(N)ncnc54)[C@H](O)[C@@H]3O)c2cc1C` [FAD], which “X-ray crystal structure, 1.7 Å” value (OsMDHAR [1]) is on record?
Answer: All four structures contain one molecule of FAD per monomer

Question: How did the binding affinity (OsMDHAR [2]) turn out when `NC(=O)C1=CN([C@@H]2O[C@H](COP(=O)(O)OP(=O)(O)OC[C@H]3O[C@@H](n4cnc5c(N)ncnc54)[C@H](O)[C@@H]3O)[C@@H](O)[C@H]2O)C=CC1` [NADH] was run?
Answer: we measured the binding affinity of wild type (WT) and E196A for NADH and NADPH

Question: What about the binding affinity (OsMDHAR [3]) of the same compound?
Answer: there is no difference between WT and E196A in NAD binding affinity

Question: How did the “X-ray crystal structure, 1.9 Å” value (OsMDHAR [4]) turn out when `NC(=O)c1ccc[n+]([C@@H]2O[C@H](COP(=O)(O)OP(=O)(O)OC[C@H]3O[C@@H](n4cnc5c(N)ncnc54)[C@H](O)[C@@H]3O)[C@@H](O)[C@H]2O)c1` [NAD] was run?
Answer: We also determined quaternary complex structures with FAD, NAD, and AsA or ISD

Question: With `NC(=O)c1ccc[n+]([C@@H]2O[C@H](COP(=O)(O)OP(=O)(O)OC[C@H]3O[C@@H](n4cnc5c(N)ncnc54)[C@H](OP(=O)(O)O)[C@@H]3O)[C@@H](O)[C@H]2O)c1` [NADP] as the compound, how does the “X-ray crystal structure, 1.8 Å” value (OsMDHAR [5]) read?
Answer: the structure of the E196A mutant-NADP complex revealed
